Assays:
[1] = target: PTP-MEG2 (Homo sapiens (Human), UniProt P43378); assay: pNPP hydrolysis enzyme assay, PTP-MEG2; assay type: biochemical; conditions: for IC50: pNPP substrate, pH 7.0, 25° C., read-out: IC50 for PTP-MEG2
Procedure: (§1) Enzyme kinetic assay. PTP activity was assayed using p-nitrophenyl phosphate (pNPP) as a substrate in 3,3-dimethylglutarate buffer (50 mM 3,3-dimethylglutarate, pH 7.0, 1 mM EDTA, 150 mM NaCl, 2 mM DTT, 0.1 mg/mL BSA) at 25° C. The assays were performed in 96-well plates. Normally, to determine the IC50 values, the reaction was initiated by the addition of enzyme (final concentration at 10 nM) to a reaction mixture (0.2 mL) containing 2 mM (Km for the substrate) pNPP with various concentrations of inhibitors. The reaction rate was measured using a SpectraMax Plus 384 Microplate Spectrophotometer (Molecular Devices). To determine the mode of inhibition, the reactions were initiated by the addition of PTP-MEG2 to the reaction mixtures (0.2 mL) containing various concentrations of pNPP with different concentrations of the inhibitor 7. Data were fitted using SigmaPlot Enzyme Kinetics Module (Systat Software, Inc.).
PTP-MEG2 Overexpression, and Purification. The expression vector containing residues 277-582 of PTP-MEG2 catalytic domain was provided by Stefan Knapp at the University of Oxford. For protein expression, transformed cells were grown at 37° C. in Luria broth (LB) containing […] ampicillin for 4 h to an OD600 nm @0.6, and then induced for overnight at 18° C. with 0.4 mM IPTG. Cells were harvested by centrifugation (6500 rpm for 15 min at 4° C.), and the cell pellets from 1.5 L LB medium were suspended in 30 mL of ice-cold lysis buffer consisting of 5 mM imidazole, 500 mM NaCl, 20 mM Tris-HCl (pH 7.9), 0.05 mg/mL trypsin inhibitor and 0.1 mM PMSF. The suspensions were passed twice through a French Press at 1200 psi, and the cell lysates were centrifuged at 4° C. for 30 min at 16,000 rpm. The supernatants were mixed with 2 mL Ni-NTA Agarose (His*Bind Resin) (Qiagen) at 4° C. for 1 hour, then transferred mixture to an empty column. The column was washed by 200 mL binding buffer (5 mM imidazole, 500 mM NaCl, 20 mM Tris-HCl (pH 7.9)), followed by 20 mL wash buffer (20 mM imidazole, 500 mM NaCl, 20 mM Tris-HCl (pH 7.9)), and then eluted with 20 mL elution buffer (200 mM imidazole, 500 mM NaCl, 20 mM Tris-HCl (pH 7.9), 5 mM DTT). The elution was dialyzed for 6 h at 4° C. against 1 L buffer A (50 mM NaCl, 20 mM MES (pH6.0), 1 mM EDTA), and then loaded onto a Mono S column equilibrated at 4° C. with buffer A. The column was washed with 10 ml buffer A and then eluted with a 40 mL linear gradient of 0 to 1M NaCl in buffer A. The PTP-MEG2 was eluted at 0.35 M NaCl. The column fractions were analyzed by measuring the absorbance at 280 nm and by carrying out SDS-PAGE analysis. The fractions were combined, dialyzed against 1 L buffer A and concentrated at 4° C. to 8 mg/mL using an Amicon concentrator and then stored at −80° C.

[2] = target: PTP1B (Homo sapiens (Human), UniProt P18031); assay: pNPP hydrolysis enzyme assay, PTP1B; assay type: biochemical
Procedure: as §1

PTP-MEG2, sequence (P43378 277-582): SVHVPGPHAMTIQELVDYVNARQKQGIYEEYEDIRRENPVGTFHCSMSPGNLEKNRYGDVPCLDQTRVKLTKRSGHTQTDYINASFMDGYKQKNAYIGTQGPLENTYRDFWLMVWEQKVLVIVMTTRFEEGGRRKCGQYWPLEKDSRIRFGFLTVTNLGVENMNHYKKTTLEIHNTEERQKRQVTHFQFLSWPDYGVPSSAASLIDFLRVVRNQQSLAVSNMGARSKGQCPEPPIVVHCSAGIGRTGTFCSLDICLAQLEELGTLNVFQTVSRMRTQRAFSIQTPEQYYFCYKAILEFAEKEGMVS
PTP1B, sequence (P18031 whole entry, species assumed): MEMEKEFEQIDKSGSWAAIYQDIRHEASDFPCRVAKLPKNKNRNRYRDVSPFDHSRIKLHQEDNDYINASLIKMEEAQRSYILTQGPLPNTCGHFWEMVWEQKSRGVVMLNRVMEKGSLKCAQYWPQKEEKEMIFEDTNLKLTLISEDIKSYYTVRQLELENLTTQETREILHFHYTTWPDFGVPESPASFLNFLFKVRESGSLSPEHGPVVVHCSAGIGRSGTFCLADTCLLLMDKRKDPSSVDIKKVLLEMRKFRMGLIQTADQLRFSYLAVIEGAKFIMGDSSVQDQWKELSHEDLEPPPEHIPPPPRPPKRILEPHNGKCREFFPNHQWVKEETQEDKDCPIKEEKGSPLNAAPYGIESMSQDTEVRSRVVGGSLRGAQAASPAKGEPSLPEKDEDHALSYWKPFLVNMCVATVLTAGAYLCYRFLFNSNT

SMILES	improvement in potency / binding affinity for PTP-MEG2 over the preceding lead ([1]; Compound 5 vs Compound 3, Compound 7 vs Compound 5) [fold]	IC50 [1] [nM]	IC50 ([2]; pNPP substrate) [nM]	selectivity for PTP-MEG2 over PTP1B ([2]; ratio of IC50 values) [fold]
Cc1ccc(C(=O)NC(Cc2ccc(C(F)(F)P(=O)(O)O)cc2)C(=O)NC(CCCNC(=O)c2cccc(I)c2)C(N)=O)cc1Br (centres unmarked) [Compound 5]	3.3	270 ± 70	3400 ± 80	12.6
CC(=O)NC(Cc1ccc(C(F)(F)P(=O)(O)O)cc1)C(=O)NC(CCCNC(=O)c1cccc(I)c1)C(N)=O (centres unmarked) [Compound 3]		900 ± 20		

Source: patent US9340574B2, “Inhibitors of protein tyrosine phosphatases” (Indiana University Research and Technology Corporation, priority 2012, dated 2016)
